Values of other authors in patent US20090297625A1, “AGENT FOR TREATING EYE DISEASES” (OTKRYTOE AKTSIONERNOE OBSCHESTVO ZAVOD, priority 2006, published 2009).

Details: administration of lutein as an additive

In the case of CC1=C[C@H](O)CC(C)(C)[C@H]1/C=C/C(C)=C/C=C/C(C)=C/C=C/C=C(C)/C=C/C=C(C)/C=C/C1=C(C)C[C@@H](O)CC1(C)C [lutein], the “absorption and storage in the macula lutea” value is listed as “well absorbed and stored in the macula lutea”.
